The target in the experiment is SARS-CoV virus 3CL protease protein (Severe acute respiratory syndrome coronavirus, UniProt P0C6X7). In words: biochemical. It is filed as binding.

In the case of `CN(C)CCCSc1ccccc1NC(=O)C=Cc1ccccc1` [cinanserin, 2′-(3-dimethylaminopropylthio)cinnamanilide], the kd was found to be 0.00993 s⁻¹. The kon (read-out: ka) stood at 38600 M⁻¹ s⁻¹.

The record behind these values is patent publication US7662860B2 (priority 2003, dated 2010).
